Measured values reported in ChEMBL document CHEMBL3351849, “Synthesis, biological activity and mechanistic insights of 1-substituted cyclopropylamine derivatives: a novel class of irreversible inhibitors of histone demethylase KDM1A” (Eur J Med Chem, 2014).
Calls of active or inactive are those of the source. No cut-off for these calls is given here.

Experiments:
[1] = molecular target: T1, Amine oxidase [flavin-containing] A (Homo sapiens, UniProt P21397)
T1 sequence (P21397 whole entry): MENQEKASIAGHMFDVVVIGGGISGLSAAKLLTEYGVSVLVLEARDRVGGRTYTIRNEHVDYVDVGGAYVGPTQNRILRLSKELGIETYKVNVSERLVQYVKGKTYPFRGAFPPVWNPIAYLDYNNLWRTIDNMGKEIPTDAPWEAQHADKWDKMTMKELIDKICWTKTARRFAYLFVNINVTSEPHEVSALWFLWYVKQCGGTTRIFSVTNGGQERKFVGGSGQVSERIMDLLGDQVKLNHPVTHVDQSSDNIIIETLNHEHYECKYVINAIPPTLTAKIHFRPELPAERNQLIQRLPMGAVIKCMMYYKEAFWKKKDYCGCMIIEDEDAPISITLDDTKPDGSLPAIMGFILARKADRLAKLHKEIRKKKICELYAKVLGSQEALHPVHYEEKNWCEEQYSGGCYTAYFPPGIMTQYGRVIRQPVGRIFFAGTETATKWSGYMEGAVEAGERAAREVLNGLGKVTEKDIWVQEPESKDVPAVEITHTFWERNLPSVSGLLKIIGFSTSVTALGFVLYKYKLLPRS

[2] = molecular target: T2, Amine oxidase [flavin-containing] B (Homo sapiens, UniProt P27338)
T2 sequence (P27338 whole entry): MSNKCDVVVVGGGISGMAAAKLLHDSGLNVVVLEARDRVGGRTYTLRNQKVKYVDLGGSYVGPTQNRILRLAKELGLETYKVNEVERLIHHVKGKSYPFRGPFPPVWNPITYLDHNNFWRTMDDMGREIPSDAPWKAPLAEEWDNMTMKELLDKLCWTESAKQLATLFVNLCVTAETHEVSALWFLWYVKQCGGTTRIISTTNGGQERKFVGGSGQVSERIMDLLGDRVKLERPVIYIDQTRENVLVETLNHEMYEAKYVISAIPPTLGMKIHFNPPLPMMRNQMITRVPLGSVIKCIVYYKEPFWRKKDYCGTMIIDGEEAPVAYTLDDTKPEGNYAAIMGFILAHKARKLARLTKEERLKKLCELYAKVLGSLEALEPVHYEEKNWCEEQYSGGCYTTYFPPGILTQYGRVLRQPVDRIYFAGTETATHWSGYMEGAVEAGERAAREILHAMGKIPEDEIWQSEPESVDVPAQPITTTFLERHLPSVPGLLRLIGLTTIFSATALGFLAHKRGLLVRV

[3] = molecular target: T3, Lysine-specific histone demethylase 1A (Homo sapiens, UniProt O60341); assay: Inhibition of human recombinant KDM1A/CoREST expressed in Escherichia coli assessed as reduction in H2O2 release at 22 uM using synthetic mono-methylated H3-K4 peptide (21 amino acids) substrate by horseradish peroxidase coupled enzyme assay
[4] = molecular target: T3, Lysine-specific histone demethylase 1A; assay: Inhibition of human recombinant KDM1A/CoREST expressed in Escherichia coli assessed as reduction in H2O2 release at 100 uM using synthetic mono-methylated H3-K4 peptide (21 amino acids) substrate by horseradish peroxidase coupled enzyme assay
[5] = molecular target: T3, Lysine-specific histone demethylase 1A
[6] = molecular target: T3, Lysine-specific histone demethylase 1A; assay: Inhibition of KDM1A in human NB4 cells assessed as increase in Gfi-1b mRNA expression up to 100 uM incubated for 24 hrs by quantitative RT-PCR method; assay type: cell-based; settings: NB-4
[7] = molecular target: T3, Lysine-specific histone demethylase 1A; remark: listed apart in the source

| IC50 [1] [nM] | IC50 [2] [nM] | SMILES | also measured |
| --- | --- | --- | --- |
| 235 | 5550 | N[C@]1(c2ccccc2)C[C@H]1c1ccccc1 | – |
| 2590 | 28100 | N[C@]1(Cc2ccccc2)C[C@H]1c1ccccc1 | – |
| 8310 | 74300 | N[C@@]1(Cc2ccccc2)C[C@@H]1c1ccccc1 | – |
| 21.4 | 941 | N[C@]1(CCc2ccccc2)C[C@H]1c1ccccc1 (racemic) | – |
| 527 | 600 | CCC[C@@]1(N)C[C@H]1c1ccccc1 (relative stereo) | – |
| 82.8 | 10400 | N[C@@]1(c2ccccc2)C[C@H]1c1ccccc1 (relative stereo) | – |
| 3510 | 50500 | N[C@]1(Cc2ccccc2)C[C@@H]1c1ccccc1 (relative stereo) | – |
| 1300 | 12700 | N[C@]1(Cc2ccc3ccccc3c2)C[C@H]1c1ccccc1 (relative stereo) | – |

The remaining lines, values behind:

| SMILES | IC50 [1] [nM] | IC50 [2] [nM] | also measured |
| --- | --- | --- | --- |
| CC[C@@]1(N)C[C@H]1c1ccccc1 | 6800 | 33300 | – |
| CC[C@]1(N)C[C@@H]1c1ccccc1 | 1430 | 88 | – |
| N[C@@]1(c2ccccc2)C[C@@H]1c1ccccc1 | 94 | 11500 | – |
| NCC(=O)c1ccccc1 | – | – | inhibition [3]: 30% |
| CC[C@@]1(N)C[C@@H]1c1ccccc1 (relative stereo) | 1920 | 190 | – |
| CCOC(=O)[C@]1(N)C[C@H]1c1ccccc1 (relative stereo) | – | – | inhibition [4]: 11%; IC50 [5]: > 100000 nM |
| N[C@@]1(C(=O)O)C[C@H]1c1ccccc1 (relative stereo) | – | – | inhibition [4]: 21%; IC50 [5]: > 100000 nM |
| NC[C@@H]1C[C@H]1c1ccccc1 (relative stereo) | – | – | inhibition [4]: 0% |
| N[C@@H]1C[C@@H]1Oc1ccccc1 (relative stereo) | – | – | inhibition [4]: 0% |
| N[C@H]1C[C@@H]1Oc1ccccc1 (relative stereo) | – | – | inhibition [4]: 0% |
| C#CCN(C)CCCOc1ccc(Cl)cc1Cl [CLORGILINE] | – | – | inhibition [6]: inactive; IC50 [7]: Not Active |
